According to US20230414607A1, “METHODS OF TREATMENT” (BOW RIVER LLC, priority 2017, published 2023):
Read-outs that look alike come from different tables or passages of the source. One block for each compound: values may come before it.

Legend:
[1] = cited from earlier work
CYP3A4 = CYP3A4 (Homo sapiens, UniProt P08684); settings: cited from earlier work
[2] = AUC and Cmax target safe levels of CYP3A4 substrate drugs (Table 1)
From the text: In various embodiments, the “Target safe levels” are non-limiting examples of the upper limit of fold change or percent of baseline where in some embodiments the benefits of treating the patient for the condition or disease for which the CYP3A4 substrate drug is indicated outweigh the risks associated with the effects of a drug-drug interaction. […] For purposes of the present methods, the blood plasma levels measured during co-administration of the CYP3A4 substrate drug with […] may be used to estimate the posaconazole DDI decay curve, e.g., using equation 1.

[3] = single 90 min infusion of irinotecan 125 mg/m^2, AUC0-24
[4] = single 90 min infusion of irinotecan 125 mg/m^2
[5] = single 90 min infusion of irinotecan 340 mg/m^2, AUC0-24
[6] = single 90 min infusion of irinotecan 340 mg/m^2
[7] = co-administered with a strong CYP3A4 inhibitor (posaconazole, itraconazole, ritonavir, or ketoconazole)
[8] = upper limit where benefits outweigh risks, approximation, can vary by about ±25%

CYP3A4, sequence (P08684 whole entry): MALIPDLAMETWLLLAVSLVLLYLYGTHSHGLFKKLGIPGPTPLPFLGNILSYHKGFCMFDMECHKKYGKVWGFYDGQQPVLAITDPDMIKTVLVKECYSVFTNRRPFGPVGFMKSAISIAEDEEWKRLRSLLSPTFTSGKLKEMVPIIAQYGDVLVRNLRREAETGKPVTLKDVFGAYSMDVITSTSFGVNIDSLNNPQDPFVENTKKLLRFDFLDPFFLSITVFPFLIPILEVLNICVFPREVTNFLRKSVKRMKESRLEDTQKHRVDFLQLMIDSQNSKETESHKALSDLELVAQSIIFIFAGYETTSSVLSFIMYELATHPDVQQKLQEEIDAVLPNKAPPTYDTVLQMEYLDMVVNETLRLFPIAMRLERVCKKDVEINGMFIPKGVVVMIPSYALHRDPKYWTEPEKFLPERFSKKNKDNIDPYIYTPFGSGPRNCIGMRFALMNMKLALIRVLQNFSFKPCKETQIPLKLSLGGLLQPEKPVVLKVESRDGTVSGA

Compound: COc1cc(Nc2ncc(F)c(Nc3ccc4c(n3)NC(=O)C(C)(C)O4)n2)cc(OC)c1OC [R406]
Baseline AUC (% CV) ([1]; in vivo): 7080 (±2670) ng*h/mL
Baseline Cmax (% CV) ([1]; in vivo): 550 (±270) ng/ml

Compound: CCc1c2c(nc3ccc(O)cc13)-c1cc3c(c(=O)n1C2)COC(=O)[C@]3(O)CC [SN-38]
Baseline AUC (% CV) [1, 3]: 229 ± 108 ng·h/mL
Baseline Cmax (% CV) [1, 4]: 26.3 ± 11.9 ng/mL
Baseline AUC (% CV) [1, 5]: 474 ± 245 ng·h/mL
Baseline Cmax (% CV) [1, 6]: 56.0 ± 28.2 ng/mL

AUC target safe level, Fold change ([2]; human): 1.3 fold
AUC target safe level, Percent of baseline ([2]; human): 130%
Compound: CCN1CCN(Cc2ccc(Nc3ncc(F)c(-c4cc(F)c5nc(C)n(C(C)C)c5c4)n3)nc2)CC1 [abemaciclib]
AUC co-administration levels, Fold change (CYP3A4; in vivo): 16 fold
AUC co-administration levels, Percent of baseline (CYP3A4; in vivo): 1600%

AUC target safe level, Fold change ([2]; human): 2.0 fold
AUC target safe level, Percent of baseline ([2]; human): 200%
Cmax target safe level, Fold change ([2]; human): 2.0 fold
Cmax target safe level, Percent of baseline ([2]; human): 200%
Compound: CC#CC(=O)N1CCC[C@H]1c1nc(-c2ccc(C(=O)Nc3ccccn3)cc2)c2c(N)nccn12 [acalabrutinib]
AUC co-administration levels, Fold change (CYP3A4; in vivo): 5.1 fold
AUC co-administration levels, Percent of baseline (CYP3A4; in vivo): 510%
Cmax co-administration levels, Fold change (CYP3A4; in vivo): 3.9 fold
Cmax co-administration levels, Percent of baseline (CYP3A4; in vivo): 390%

Compound: CO[C@H]1C[C@@H]2CC[C@@H](C)[C@@](O)(O2)C(=O)C(=O)N2CCCC[C@H]2C(=O)O[C@H]([C@H](C)C[C@@H]2CC[C@@H](OCCO)[C@H](OC)C2)CC(=O)[C@H](C)/C=C(\C)[C@@H](O)[C@@H](OC)C(=O)[C@H](C)C[C@H](C)/C=C/C=C/C=C/1C [everolimus]
normal baseline AUC: mean AUC0-24±SD at steady state ([1]; 10 mg everolimus): about 536±7.7 ng*h/mL
normal baseline Cmax: mean Cmax (% CV), steady state ([1]; 10 mg everolimus): 59.7±16.9 (21.7%) ng/mL

Compound: CCc1c2c(nc3ccc(OC(=O)N4CCC(N5CCCCC5)CC4)cc13)-c1cc3c(c(=O)n1C2)COC(=O)[C@]3(O)CC [irinotecan]
Baseline AUC (% CV) [1, 3]: 10,200 ng*h/mL
Baseline Cmax (% CV) [1, 4]: 1,660 ± 797 ng/ml
Baseline AUC (% CV) [1, 5]: 20,604 ng*h/mL
Baseline Cmax (% CV) [1, 6]: 3,392 ± 874 ng/ml

AUC target safe level, Fold change ([2]; human): 2.1 fold
AUC target safe level, Percent of baseline ([2]; human): 210%
Cmax target safe level, Fold change ([2]; human): 1.6 fold
Cmax target safe level, Percent of baseline ([2]; human): 160%
Compound: COc1cc2c(cc1OC)CC(=O)N(CCCN(C)C[C@H]1Cc3cc(OC)c(OC)cc31)CC2 [ivabradine]
AUC co-administration levels, Fold change (CYP3A4; in vivo): 7 fold
AUC co-administration levels, Percent of baseline (CYP3A4; in vivo): 700%
Cmax co-administration levels, Fold change (CYP3A4; in vivo): 3.25 fold
Cmax co-administration levels, Percent of baseline (CYP3A4; in vivo): 325%

AUC target safe level, Fold change ([2]; human): 1.73 fold
AUC target safe level, Percent of baseline ([2]; human): 173%
Cmax target safe level, Fold change ([2]; human): 1.52 fold
Cmax target safe level, Percent of baseline ([2]; human): 152%
Compound: N#Cc1ccnc(N2C(=O)CC[C@H]2C(=O)N(c2cncc(F)c2)[C@H](C(=O)NC2CC(F)(F)C2)c2ccccc2Cl)c1 [ivosidenib]
AUC co-administration levels, Fold change (CYP3A4; in vivo): 2.69 fold
AUC co-administration levels, Percent of baseline (CYP3A4; in vivo): 269%

Compound: O=C(Nc1cnn2ccc(N3CCC[C@@H]3c3cc(F)ccc3F)nc12)N1CC[C@H](O)C1 [larotrectinib]
AUC co-administration levels, Fold change (CYP3A4; in vivo): 4.3 fold
AUC co-administration levels, Percent of baseline (CYP3A4; in vivo): 430%
Cmax co-administration levels, Fold change (CYP3A4; in vivo): 2.8 fold
Cmax co-administration levels, Percent of baseline (CYP3A4; in vivo): 280%

Compound: C[C@H]1Oc2cc(cnc2N)-c2c(nn(C)c2C#N)CN(C)C(=O)c2ccc(F)cc21 [lorlatinib]
AUC co-administration levels, Fold change (CYP3A4; in vivo): 1.42 fold
AUC co-administration levels, Percent of baseline (CYP3A4; in vivo): 142%
Cmax co-administration levels, Fold change (CYP3A4; in vivo): 1.24 fold
Cmax co-administration levels, Percent of baseline (CYP3A4; in vivo): 124%

Compound: C=CCN1CC[C@]23c4c5ccc(O)c4O[C@H]2[C@@H](OCCOCCOCCOCCOCCOCCOCCOC)CC[C@@]3(O)[C@H]1C5 [naloxegol]
AUC co-administration levels, Fold change (CYP3A4; [7]): 12.85 fold
AUC co-administration levels, Percent of baseline (CYP3A4; [7]): 1285%
Cmax co-administration levels, Fold change (CYP3A4; [7]): 9.58 fold
Cmax co-administration levels, Percent of baseline (CYP3A4; [7]): 958%
AUC target safe level, Fold change [2, 8]: 3.41 fold
AUC target safe level, Percent of baseline [2, 8]: 341%
Cmax target safe level, Fold change [2, 8]: 2.86 fold
Cmax target safe level, Percent of baseline [2, 8]: 286%

Compound: CCOc1cc2ncc(C#N)c(Nc3ccc(OCc4ccccn4)c(Cl)c3)c2cc1NC(=O)/C=C/CN(C)C [neratinib]
AUC co-administration levels, Fold change (CYP3A4; in vivo): 5.81 fold
AUC co-administration levels, Percent of baseline (CYP3A4; in vivo): 581%
Cmax co-administration levels, Fold change (CYP3A4; in vivo): 4.21 fold
Cmax co-administration levels, Percent of baseline (CYP3A4; in vivo): 421%
Baseline AUC (% CV) ([1]; AUC0-24 single dose 180 mg): 734 ± 291 ng·h/mL
Baseline AUC (% CV) ([1]; AUC0-24 single dose 240 mg): 823 ± 291 ng·h/mL
Baseline AUC (% CV) ([1]; AUC0-24 single dose 320 mg): 1582 ± 800 ng·h/mL
Baseline Cmax (% CV) ([1]; single dose 180 mg): 65.9 ± 34.7 ng/mL
Baseline Cmax (% CV) ([1]; single dose 240 mg): 75.9 ± 12.9 ng/mL
Baseline Cmax (% CV) ([1]; single dose 320 mg): 118 ± 47.6 ng/mL

Compound: Cc1cn(-c2cc(NC(=O)c3ccc(C)c(Nc4nccc(-c5cccnc5)n4)c3)cc(C(F)(F)F)c2)cn1 [nilotinib]
AUC co-administration levels, Fold change (CYP3A4; in vivo): 3 fold
AUC co-administration levels, Percent of baseline (CYP3A4; in vivo): 300%

Compound: O=C(c1cc(Cc2n[nH]c(=O)c3ccccc23)ccc1F)N1CCN(C(=O)C2CC2)CC1 [olaparib]
AUC co-administration levels, Fold change (CYP3A4; in vivo): 2.2 fold
AUC co-administration levels, Percent of baseline (CYP3A4; in vivo): 220%
Cmax co-administration levels, Fold change (CYP3A4; in vivo): 1.1 fold
Cmax co-administration levels, Percent of baseline (CYP3A4; in vivo): 110%

Compound: CNC(=O)c1cc(Oc2ccc(NC(=O)Nc3ccc(Cl)c(C(F)(F)F)c3)c(F)c2)ccn1 [regorafenib]
AUC co-administration levels, Fold change (CYP3A4; in vivo): 1.33 fold
AUC co-administration levels, Percent of baseline (CYP3A4; in vivo): 133%

Compound: CN(C)C(=O)c1cc2cnc(Nc3ccc(N4CCNCC4)cn3)nc2n1C1CCCC1 [ribociclib]
AUC co-administration levels, Fold change (CYP3A4; in vivo): 3.2 fold
AUC co-administration levels, Percent of baseline (CYP3A4; in vivo): 320%
Cmax co-administration levels, Fold change (CYP3A4; in vivo): 1.7 fold
Cmax co-administration levels, Percent of baseline (CYP3A4; in vivo): 170%

AUC target safe level, Fold change ([2]; human): 1.52 fold
AUC target safe level, Percent of baseline ([2]; human): 152%
Cmax target safe level, Percent of baseline ([2]; human): 0%
Compound: O=C(NC[C@H]1CN(c2ccc(N3CCOCC3=O)cc2)C(=O)O1)c1ccc(Cl)s1 [rivaroxaban]
AUC co-administration levels, Fold change (CYP3A4; in vivo): 1.76 fold
AUC co-administration levels, Percent of baseline (CYP3A4; in vivo): 176%
Cmax co-administration levels, Fold change (CYP3A4; in vivo): 1.56 fold
Cmax co-administration levels, Percent of baseline (CYP3A4; in vivo): 156%

Compound: N#C[C@@H]1C[C@@H]2C[C@@H]2N1C(=O)[C@@H](N)C12CC3CC(CC(O)(C3)C1)C2 [saxagliptin]
AUC co-administration levels, Fold change (CYP3A4; in vivo): 3.67 fold
AUC co-administration levels, Percent of baseline (CYP3A4; in vivo): 367%
Cmax co-administration levels, Fold change (CYP3A4; in vivo): 2.44 fold
Cmax co-administration levels, Percent of baseline (CYP3A4; in vivo): 244%

AUC target safe level, Fold change ([2]; human): 10.4 fold
AUC target safe level, Percent of baseline ([2]; human): 1040%
Compound: CCc1cc(/C(C)=N/OCc2ccc(C3CCCCC3)c(C(F)(F)F)c2)ccc1CN1CC(C(=O)O)C1 [siponimod]
AUC co-administration levels, Fold change (CYP3A4; in vivo): 2 fold
AUC co-administration levels, Percent of baseline (CYP3A4; in vivo): 200%

Compound: O=C(O[C@H]1CN2CCC1CC2)N1CCc2ccccc2[C@@H]1c1ccccc1 [solifenacin succinate]
normal baseline AUC: mean AUC0-24 (% CV) at steady state ([1]; in vivo, 5 mg): about 463 (37%) ng*h/mL
normal baseline Cmax: mean Cmax (% CV), steady state ([1]; in vivo, 5 mg): 24.01 (30%) ng/mL
normal baseline AUC: mean AUC0-24 (% CV) at steady state ([1]; in vivo, 10 mg): about 749 (22%) ng*h/mL
normal baseline Cmax: mean Cmax (% CV), steady state ([1]; in vivo, 10 mg): 40.61 (21%) ng/mL

Cmax target safe level, Percent of baseline ([2]; human): 0%
Compound: Cc1c(C(=O)Nc2ccc(N3C[C@@H](C)O[C@@H](C)C3)nc2)cccc1-c1ccc(OC(F)(F)F)cc1 [sonidegib]
AUC co-administration levels, Fold change (CYP3A4; in vivo): 2.2 fold
AUC co-administration levels, Percent of baseline (CYP3A4; in vivo): 220%
Cmax co-administration levels, Fold change (CYP3A4; in vivo): 1.5 fold
Cmax co-administration levels, Percent of baseline (CYP3A4; in vivo): 150%

Compound: CN1CC(=O)N2[C@H](c3ccc4c(c3)OCO4)c3[nH]c4ccccc4c3C[C@@H]2C1=O [tadalafil]
normal baseline AUC: mean AUC0-∞ (% CV) ([1]; 10 mg tadalafil): about 3647 (34.0%) μg*h/L
normal baseline Cmax: mean Cmax (% CV) ([1]; 10 mg tadalafil): 190 (21.7%) μg/L
normal baseline Cmax: mean Cmax (% CV) ([1]; 20 mg tadalafil): 548 (24.0%) μg/L

Compound: CC[C@@H]1CN(C(=O)NCC(F)(F)F)C[C@@H]1c1cnc2cnc3[nH]ccc3n12 [upadacitinib]
Baseline AUC (% CV) ([1]; AUCinf single dose at 3 mg): 103 ± 27.6 ng·h/mL
Baseline AUC (% CV) ([1]; AUCinf single dose at 6 mg): 160 ± 37.6 ng·h/mL
Baseline AUC (% CV) ([1]; AUCinf single dose at 12 mg): 331 ± 49.8 ng·h/mL
Baseline AUC (% CV) ([1]; AUCinf single dose at 24 mg): 615 ± 78.1 ng·h/mL
Baseline Cmax (% CV) ([1]; single dose at 6 mg): 38.9 ± 9.96 ng/mL
Baseline Cmax (% CV) ([1]; single dose at 12 mg): 82.9 ± 12.1 ng/mL

Compound: CC1(C)CCC(CN2CCN(c3ccc(C(=O)NS(=O)(=O)c4ccc(NCC5CCOCC5)c([N+](=O)[O-])c4)c(Oc4cnc5[nH]ccc5c4)c3)CC2)=C(c2ccc(Cl)cc2)C1 [venetoclax]
AUC co-administration levels, Fold change (CYP3A4; in vivo): 1.78 fold
AUC co-administration levels, Percent of baseline (CYP3A4; in vivo): 178%
Cmax co-administration levels, Fold change (CYP3A4; in vivo): 1.06 fold
Cmax co-administration levels, Percent of baseline (CYP3A4; in vivo): 106%
